In PMC8347176, “Novel High Affinity Sigma-1 Receptor Ligands from Minimal Ensemble Docking-Based Virtual Screening” (International Journal of Molecular Sciences, 2021):
Where a name gives a salt, the structure may show the parent alone. Read-outs that look alike come from different tables or passages of the source.

How the values were obtained:
S1R = test system: S1R; set-up: method as in PMID 16463398; conditions: cited from earlier work
sigma-1 receptor (S1R) = target: T1, sigma-1 receptor (S1R) (Cavia porcellus, UniProt Q60492); experiment: Sigma-1 receptor competitive radioligand binding assay with [3H](+)-pentazocine in guinea pig liver membranes
T1 construct: Guinea pig liver tissue preparation abundantly contains sigma-1 receptor as compared to other tissues; from tissue; host or cells: guinea pig liver membrane homogenate
Description: Male Wistar-Harlan rats (n = 10, 225–250 g) and guinea pigs (n = 10, 350–400 g) were handled according to the European Communities Council Directive (2010/63/EU) and to the Regulations on Animal Protection (40/2013. (II. 14.) Korm. r.) of Hungary. The researchers did the best effort to minimize the number of animals and their suffering. Preparation of guinea pig and rat liver homogenates was performed according to a previous method with a slight modification. Euthanized male guinea pig and rats were killed by decapitation, and their livers were removed rapidly. Minced fresh livers were homogenized in ice-cold homogenization buffer (10 mM NaH2PO4 pH 7.4, 0.32 M sucrose, 1 mM MgSO4, 10 μg/mL leupeptin, 1 μg/mL pepstatin A, 5 μg/mL soybean trypsin inhibitor, 0.5 mM EGTA, 1 mM AEBSF) using a Braun Teflon-glass homogenizer at the highest rpm for 30 s. The homogenate was centrifuged at 17,000× g for 10 min (4 °C). Supernatant was recentrifuged at 100,000× g for 60 min at 4 °C. The resulting pellet was resuspended in 10 volumes homogenization buffer, homogenized by a glass homogenizer and stored in aliquots at −80 °C. The protein content of the samples was measured by the Bradford method and samples were diluted in assay buffer to obtain the appropriate amount for the assay.
Binding assays for the sigma-1 receptor were performed at 37 °C for 90 min in a 50 mM Tris–HCl binding buffer (pH 8.0) in plastic tubes in a total assay volume of 1 mL that contained 0.5 mg/mL of a membrane protein. […] The incubation was terminated by diluting the samples with an ice-cold wash buffer (50 mM of Tris–HCl, pH 8.0), followed by repeated washing and rapid filtration through Whatman GF/B glass fiber filters (Whatman Ltd., Maidstone, UK) presoaked with 0.1% polyethyleneimine. Filtration was performed with a 24-well Brandel Cell Harvester (Gaithersburg, MD, USA). Filters were air-dried and immersed into Ultima Gold MV scintillation cocktail, and then radioactivity was measured with a TRI-CARB 2100TR liquid scintillation analyzer (Packard, Perkin Elmer, Waltham, MA, USA).
(§1) The results of the competition binding studies are reported as means ± S.E.M. of at least three independent experiments each performed in duplicate. In competition binding studies, the inhibitory constants (Ki) were calculated from the inflection points of the displacement curves using nonlinear least-square curve fitting and the Cheng–Prusoff equation, Ki = EC50/(1 + [ligand]/Kd). All data and curves were analyzed by GraphPad Prism 5.0 (San Diego, CA, USA).

sigma-2 receptor (S2R) = target: T2, sigma-2 receptor (S2R) (Rattus norvegicus, UniProt Q5U3Y7); experiment: Sigma-2 receptor competitive radioligand binding assay with [3H]DTG in rat liver membranes, S1R masked with 100 nM (+)-pentazocine
T2 construct: from tissue; host or cells: rat (male Wistar-Harlan) liver membrane homogenate
T2 sequence (Q5U3Y7 1-176): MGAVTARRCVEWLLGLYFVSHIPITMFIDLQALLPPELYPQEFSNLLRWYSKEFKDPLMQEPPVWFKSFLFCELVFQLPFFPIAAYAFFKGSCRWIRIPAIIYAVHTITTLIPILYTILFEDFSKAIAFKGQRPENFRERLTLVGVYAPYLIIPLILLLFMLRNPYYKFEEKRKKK
Description: Male Wistar-Harlan rats (n = 10, 225–250 g) and guinea pigs (n = 10, 350–400 g) were handled according to the European Communities Council Directive (2010/63/EU) and to the Regulations on Animal Protection (40/2013. (II. 14.) Korm. r.) of Hungary. The researchers did the best effort to minimize the number of animals and their suffering. Preparation of guinea pig and rat liver homogenates was performed according to a previous method with a slight modification. Euthanized male guinea pig and rats were killed by decapitation, and their livers were removed rapidly. […] The protein content of the samples was measured by the Bradford method and samples were diluted in assay buffer to obtain the appropriate amount for the assay.
as §1

T1 sequence (Q60492 whole entry): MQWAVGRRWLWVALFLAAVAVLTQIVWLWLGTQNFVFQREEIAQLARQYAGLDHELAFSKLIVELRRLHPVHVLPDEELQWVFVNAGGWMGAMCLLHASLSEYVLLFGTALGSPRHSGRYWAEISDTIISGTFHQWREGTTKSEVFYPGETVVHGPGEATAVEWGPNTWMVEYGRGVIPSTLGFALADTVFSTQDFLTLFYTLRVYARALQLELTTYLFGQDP

COc1cc(CCN2CCN(CCCc3ccccc3)CC2)ccc1OCCF [fluoroethyl analog of S1R agonist SA4503]
KiS2R/KiS1R (S1R): 14.1

CC1(C)C2CC(O)C(O)(CNCc3ccccc3)CC21 [L7, (1S,3R,4R,6R)-3-(benzylamino)methyl)-7,7-dimethylbicyclo[4.1.0]heptane-3,4-diol]
Ki (sigma-1 receptor (S1R); read-out: Measured Ki): 1380 nM

NC(CC(=O)NCc1cccc(C(F)(F)F)c1F)c1ccccc1 (stereo not shown) [L2, 3-Amino-N-(2-fluoro-3-(trifluoromethyl)benzyl]-3-phenylpropanamide hydrochloride]
Ki (sigma-1 receptor (S1R); read-out: Measured Ki): 91 nM

COCCCC/C(=N\OCCN)c1ccc(C(F)(F)F)cc1 [fluvoxamine, reference compound]
Ki (sigma-1 receptor (S1R); read-out: S1R Ki ± S.E.M.): 31 ± 3 nM | displacement of [3H]DTG (partial) (sigma-2 receptor (S2R)): 70–80%

NN1C(=O)C2C3C=CC(C3)C2NC12CCN(Cc1ccccc1)CC2 (racemic) [L5, (±)-diendo-3′-amino-1-benzyl-5′,8′-methano-4′a,5′,8′,8′a-tetrahydrospiro[piperidine-4,2′(1′H)-quinazolin]-4′(3′H)-one]
Ki (sigma-1 receptor (S1R); read-out: Measured Ki): 463 nM

CC(C)=CCN1CC[C@]2(C)c3cc(O)ccc3C[C@H]1[C@H]2C [(+)-pentazocine]
displacement of [3H]DTG (partial) (sigma-2 receptor (S2R)): 70–80%

Cn1c2c(c3ccccc31)CCNC2CNC(=O)OCc1ccccc1 (stereo not shown) [L6, N-Benzyloxycarbonyl-(9-methyl-2,3,4,9-tetrahydro-1H-pyrido[3,4-b]indol-1-yl)methanamine]
Ki (sigma-1 receptor (S1R); read-out: Measured Ki): 1040 nM

O=C(NCC1NCCc2c1[nH]c1ccccc21)OCc1ccccc1 (stereo not shown) [L9, N-Benzyloxycarbonyl-(2,3,4,9-tetrahydro-1H-pyrido[3,4-b]indol-1-yl)methanamine]
Ki (sigma-1 receptor (S1R); read-out: Measured Ki): 1720 nM

CCOc1cc2c(cc1OCC)[C@H]1[C@H](CSc3ccc(Cl)cc3)CN1CC2 (relative stereo) [L12, (1R*,9bR*)-1-{[(4-Chlorophenyl)thio]methyl}-7,8-diethoxy-1,4,5,9b-tetrahydro-2H-azeto[2,1a]-isoquinoline]
Ki (sigma-1 receptor (S1R); read-out: Measured Ki): 3270 nM

CCOc1cc2c(cc1OCC)[C@H]1CCN[C@@H](c3ccc(N(C)C)cc3)N1CC2 (relative stereo) [L10, (4R*,11bR*)-9,10-Diethoxy-4-[4-(dimethylamino)phenyl]-1,3,4,6,7,11b-hexahydro-2H-pyrimido[6,1-a]isoquinoline]
Ki (sigma-1 receptor (S1R); read-out: Measured Ki): 2150 nM

Cl.NC(CC(=O)NCc1cc(F)cc(C(F)(F)F)c1)c1ccccc1 (stereo not shown) [L4, 3-Amino-N-(3-fluoro-5-(trifluoromethyl)benzyl]-3-phenylpropanamide hydrochloride]
Ki (sigma-1 receptor (S1R); read-out: Measured Ki): 420 nM | melting point: 180 to 182 °C

CC(CN)C(=O)NCc1cccc(C(F)(F)F)c1F (stereo not shown) [L8, 3-Amino-N-(2-fluoro-3-(trifluoromethyl)benzyl]-2-methylpropanamide trifluoroacetate]
Ki (sigma-1 receptor (S1R); read-out: Measured Ki): 1530 nM

COc1cc2c(cc1OC)C(CCNCc1ccccc1)NCC2 (stereo not shown) [L1, N-Benzyl-6,7-dimethoxy-1,2,3,4-tetrahydro-1-isoquinolineethanamine dihydrochloride]
Ki (sigma-1 receptor (S1R); read-out: Measured Ki): 32 nM

COc1ccc(OCC(O)CN2CCc3ccccc3C2)cc1 (stereo not shown) [L3, 1-[(4-Methoxyphenoxy)methyl]-2-(1,2,3,4-tetrahydroisoquinolin-2-yl)ethanol]
Ki (sigma-1 receptor (S1R); read-out: Measured Ki): 110 nM
